Structures are written as SMILES. Active and inactive are the calls of the source. No cut-off for these calls is given here.

In series [1] the test system is MGC-803. The series is described as follows: Induction of apoptosis in human MGC-803 cells assessed as late apoptotic cells at 4 uM incubated for 36 hrs by annexin V-FITC based flow cytometry analysis (reference value: 2.61 %). In kind it is functional. On the technique in general: A flow cytometer gives signals particle by particle.
Series [2] addresses T1, Phosphatidylinositol 4,5-bisphosphate 3-kinase catalytic subunit delta isoform (Homo sapiens, UniProt O00329).
T1 sequence (O00329 whole entry): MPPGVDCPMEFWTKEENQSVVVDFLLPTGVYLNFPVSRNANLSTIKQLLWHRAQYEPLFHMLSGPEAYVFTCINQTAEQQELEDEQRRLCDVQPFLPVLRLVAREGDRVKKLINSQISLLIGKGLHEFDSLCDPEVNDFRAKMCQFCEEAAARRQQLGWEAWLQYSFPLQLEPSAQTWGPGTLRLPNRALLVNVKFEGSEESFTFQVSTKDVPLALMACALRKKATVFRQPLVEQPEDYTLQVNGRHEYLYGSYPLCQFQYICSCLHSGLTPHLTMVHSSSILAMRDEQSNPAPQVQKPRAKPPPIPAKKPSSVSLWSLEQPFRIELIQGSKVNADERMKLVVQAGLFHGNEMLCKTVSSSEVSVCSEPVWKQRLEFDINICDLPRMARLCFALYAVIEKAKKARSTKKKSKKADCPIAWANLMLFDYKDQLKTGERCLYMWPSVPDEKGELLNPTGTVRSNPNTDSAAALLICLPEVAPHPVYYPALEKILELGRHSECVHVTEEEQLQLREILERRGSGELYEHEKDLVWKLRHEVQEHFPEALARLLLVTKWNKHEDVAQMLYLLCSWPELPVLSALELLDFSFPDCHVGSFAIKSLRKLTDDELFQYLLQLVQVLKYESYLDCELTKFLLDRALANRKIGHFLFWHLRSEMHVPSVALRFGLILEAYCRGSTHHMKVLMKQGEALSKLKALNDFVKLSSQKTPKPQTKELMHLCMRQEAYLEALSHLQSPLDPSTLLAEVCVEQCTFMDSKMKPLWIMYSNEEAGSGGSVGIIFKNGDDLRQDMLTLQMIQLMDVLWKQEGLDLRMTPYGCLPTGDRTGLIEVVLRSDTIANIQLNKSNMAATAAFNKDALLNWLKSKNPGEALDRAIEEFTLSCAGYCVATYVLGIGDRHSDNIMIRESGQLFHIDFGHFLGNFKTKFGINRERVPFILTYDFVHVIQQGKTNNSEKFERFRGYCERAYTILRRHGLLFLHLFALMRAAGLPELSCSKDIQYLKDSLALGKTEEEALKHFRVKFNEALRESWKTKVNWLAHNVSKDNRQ
The series is described as follows: Inhibition of PI3Kdelta (unknown origin) in presence of [33P]-ATP incubated for 2 hrs by hotspot kinase assay.

The test system of series [3] is MGC-803. The experiment in a line: Induction of apoptosis in human MGC-803 cells assessed as early apoptotic cells at 4 uM incubated for 36 hrs by annexin V-FITC based flow cytometry analysis (reference value: 2.49 %). The class given is functional.
A short description of series [4]: Half life in Sprague-Dawley rat at 10 mg/kg, po measured after 24 hrs. The class given is ADME, organism-based. As to conditions: in vivo.
Series [5] can be described thus: Toxicity in BALB/c mouse xenografted with human MG C-803cells assessed as effect on body weight at 30 mg/kg, po administered every day for 3 week in presence of taxol. In kind it is organism-based. Conditions: in vivo, 504 h, time 3 weeks. (In general: A xenograft is tissue or cells of one species grown in another, often human tumour cells in immunodeficient mice.)

Series [6] has as its system MGC-803. The experiment in a line: Induction of apoptosis in human MGC-803 cells assessed as early apoptotic cells at 2 uM incubated for 36 hrs by annexin V-FITC based flow cytometry analysis (reference value: 2.49 %). The class given is functional.
Series [7] has as its system MGC-803. The experiment in a line: Antimetastatic activity against human MGC-803 cells assessed as […] of E-cadherin expression in at 2 to 8 uM by Western blot analysis. As to conditions: dose 2-8 µM. In kind it is functional, cell-based. On the technique in general: Immunoblotting shows a protein as a band on a membrane.
Series [8] deals with MGC-803. The experiment in a line: Inhibition of PI3K signalling pathway in human MGC-803 cells assessed as reduction in P70S6K phosphorylation at 2 to 8 uM by Western blotting analysis. The class given is cell-based. Conditions: dose 2-8 µM.
For a further series, the species on record is Homo sapiens. The series is described as follows: Selectivity index, ratio of IC50 for inhibition of PI3Kbeta (unknown origin) to IC50 for inhibition of PI3Kalpha (unknown origin).
The subject of series [9] is MGC-803. The experiment in a line: Downregulation of PI3Kalpha protein expression in human MG C-803 cells at 2 to 8 uM by Western blotting analysis. In kind it is functional, cell-based. Conditions: dose 2-8 µM.
Series [10] concerns the target Phosphatidylinositol 4,5-bisphosphate 3-kinase catalytic subunit alpha isoform (Homo sapiens, UniProt P42336). The series is described as follows: Inhibition of PI3Kalpha (unknown origin) using PIP2 as substrate in presence of ATP measured after 1 hr by ADP-Glo assay.
The nature of series [11]: Oral bioavailability in Sprague-Dawley rat at 10 mg/kg measured after 24 hrs. The class given is ADME, organism-based. As to conditions: in vivo.
Series [12] in a line: AUC (0 to infinitive) in Sprague-Dawley rat at 1 mg/kg, iv measured after 24 hrs. As to conditions: in vivo. The class given is ADME, organism-based. More on the design: time 24 hrs, dose 1 mg/kg, route iv.

Chain of Phosphatidylinositol 4,5-bisphosphate 3-kinase catalytic subunit alpha isoform (P42336 whole entry, canonical isoform): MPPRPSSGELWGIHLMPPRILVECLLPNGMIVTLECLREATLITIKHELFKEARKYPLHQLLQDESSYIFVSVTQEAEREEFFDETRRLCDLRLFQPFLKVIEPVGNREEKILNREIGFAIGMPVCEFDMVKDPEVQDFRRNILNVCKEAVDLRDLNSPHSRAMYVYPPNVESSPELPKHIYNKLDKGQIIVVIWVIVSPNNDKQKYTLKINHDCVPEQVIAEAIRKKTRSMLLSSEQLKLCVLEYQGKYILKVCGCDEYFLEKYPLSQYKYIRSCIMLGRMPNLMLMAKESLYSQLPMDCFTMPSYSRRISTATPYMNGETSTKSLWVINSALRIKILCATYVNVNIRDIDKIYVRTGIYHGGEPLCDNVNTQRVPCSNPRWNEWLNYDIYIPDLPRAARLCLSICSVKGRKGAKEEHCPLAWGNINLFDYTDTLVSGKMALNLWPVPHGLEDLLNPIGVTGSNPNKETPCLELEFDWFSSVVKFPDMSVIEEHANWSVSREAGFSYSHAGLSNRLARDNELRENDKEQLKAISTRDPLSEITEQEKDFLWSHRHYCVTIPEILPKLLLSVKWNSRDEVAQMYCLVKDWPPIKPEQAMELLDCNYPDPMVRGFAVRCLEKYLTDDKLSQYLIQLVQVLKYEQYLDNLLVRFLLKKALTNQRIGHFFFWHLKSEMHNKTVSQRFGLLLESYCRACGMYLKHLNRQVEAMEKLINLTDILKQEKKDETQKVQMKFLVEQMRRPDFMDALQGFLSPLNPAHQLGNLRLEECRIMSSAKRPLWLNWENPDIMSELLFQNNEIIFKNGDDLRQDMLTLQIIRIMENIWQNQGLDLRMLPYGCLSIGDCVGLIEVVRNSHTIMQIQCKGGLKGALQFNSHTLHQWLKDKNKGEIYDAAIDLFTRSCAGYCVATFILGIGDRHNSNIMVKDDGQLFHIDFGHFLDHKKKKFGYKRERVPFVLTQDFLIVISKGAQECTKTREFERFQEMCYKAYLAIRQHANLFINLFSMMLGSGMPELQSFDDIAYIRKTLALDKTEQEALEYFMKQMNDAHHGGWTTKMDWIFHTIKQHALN

Usually IC50 stands for the concentration needed to halve the response being measured. One may read the half-life as how long it takes for the measured level to halve. A higher half-life goes with slow loss. As a reminder, the AUC(0-inf) is total exposure, with the tail of the curve extrapolated. As for `Nc1nc2cc(-c3nc(N4CCOCC4)nc(N4CCOCC4)n3)ccc2o1`, the Activity is listed as 5.01% with MGC-803 [1], 31.31% in the series on MGC-803 [3], “Non-Toxic” in series [5] and 7.52% in the series on MGC-803 [6]. Moreover, the IC50 was 153 nM in series [2] and 4.4 nM in [10]. Besides, the half-life in series [4] was more than 10 h. The inhibition entry in the series with MGC-803 [7], with MGC-803 [8] and in the series with MGC-803 [9] was “Active” in each case. Further, in the series listed under Homo sapiens, the Ratio IC50 is 33. The bioavailability in series [11] came out at 130%. The AUC(0-inf) in [12] was found to be 2920 ng·h/mL.

Source of the values: ChEMBL document CHEMBL5143740, “Discovery of Novel Phosphoinositide-3-Kinase α Inhibitors with High Selectivity, Excellent Bioavailability, and Long-Acting Efficacy for Gastric Cancer” (J Med Chem, 2022).
